Data: ChEMBL document CHEMBL3853333, “Synthesis of novel arylaminoquinazolinylurea derivatives and their antiproliferative activities against bladder cancer cell line” (2016)

Test: Antiproliferative activity against human RT112 cells after 72 hrs by MTT assay
Format: functional
Conditions: RT-112, 72 h
CCOC(=O)c1ccc(NC(=O)Nc2cccc3c(Nc4cc(OC)cc(OC)c4)ncnc23)cc1 gave a GI50 of 317 nM.
Compound COc1cc(Nc2ncnc3c(NC(=O)Nc4cccc(C)c4C)cccc23)cc(OC)c1 has a GI50 of 5910 nM.
COc1cc(Nc2ncnc3c(NC(=O)Nc4cc(F)cc(F)c4)cccc23)cc(OC)c1 showed a GI50 of 2630 nM.
With COc1cc(Nc2ncnc3c(NC(=O)Nc4ccc(C(F)(F)F)cc4[N+](=O)[O-])cccc23)cc(OC)c1 the GI50 was over 20000 nM.
COc1cc(Nc2ncnc3c(NC(=O)Nc4cccc(Cc5ccccc5)c4)cccc23)cc(OC)c1 showed a GI50 of 1740 nM.
Work on COc1cc(Nc2ncnc3c(NC(=O)Nc4ccc(F)cc4C(F)(F)F)cccc23)cc(OC)c1 yielded a GI50 of 2970 nM.
In the case of COc1cc(Nc2ncnc3c(NC(=O)c4cccc(N5CCN(C)CC5)c4)cccc23)cc(OC)c1, the GI50 is reported as over 20000 nM.
Compound COc1cc(Nc2ncnc3c(NC(=O)Nc4ccc(Cl)cc4Cl)cccc23)cc(OC)c1 has a GI50 of 3060 nM.
In the case of COc1cc(Nc2ncnc3c(NC(=O)Nc4ccc([N+](=O)[O-])cc4)cccc23)cc(OC)c1, the GI50 is reported as over 20000 nM.
COc1cc(Nc2ncnc3c(NC(=O)Nc4ccccc4Cl)cccc23)cc(OC)c1 showed a GI50 of 356 nM.
Compound COc1cc(Nc2ncnc3c(NC(=O)c4ccc(N5CCN(C)CC5)cc4)cccc23)cc(OC)c1 has a GI50 of 14200 nM.
COc1cc(Nc2ncnc3c(NC(=O)Nc4cc(Cl)cc(Cl)c4)cccc23)cc(OC)c1 showed a GI50 of 30.2 nM.
In the case of COc1cc(Nc2ncnc3c(NC(=O)Nc4ccc(Cl)c(C(F)(F)F)c4)cccc23)cc(OC)c1, the GI50 is reported as over 20000 nM.
With COc1cc(Nc2ncnc3c(NC(=O)Nc4ccc5c(c4)OCCO5)cccc23)cc(OC)c1 the GI50 was 2750 nM.
In the case of COc1cc(Nc2ncnc3c(NC(=O)c4cc(=O)c5ccccc5o4)cccc23)cc(OC)c1, the GI50 is reported as over 20000 nM.
COc1cc(Nc2ncnc3c(NC(=O)Nc4cc(C)cc(C)c4)cccc23)cc(OC)c1 gave a GI50 of 10100 nM.
Compound COc1cc(Nc2ncnc3c(NC(=O)Nc4ccc(C(F)(F)F)cc4)cccc23)cc(OC)c1 has a GI50 of 3920 nM.
In the case of COc1cc(NC(=O)Nc2cccc3c(Nc4cc(OC)cc(OC)c4)ncnc23)cc(OC)c1, the GI50 is reported as 366 nM.
For COc1cc(Nc2ncnc3c(NC(=O)Nc4ccc(Cl)cc4)cccc23)cc(OC)c1, the GI50 was 2490 nM.
For COc1cc(Nc2ncnc3c(NC(=O)Nc4ccc(Cl)c(Cl)c4)cccc23)cc(OC)c1, the GI50 was 6230 nM.
Work on COc1cc(Nc2ncnc3c(NC(=O)Nc4ccc(C)cc4C)cccc23)cc(OC)c1 yielded a GI50 of 1290 nM.
In the case of COc1cc(Nc2ncnc3c(NC(=O)Nc4cccc(Cl)c4Cl)cccc23)cc(OC)c1, the GI50 is reported as 63.2 nM.
COc1cc(Nc2ncnc3c(NC(=O)Nc4cc(Cl)c(Cl)cc4Cl)cccc23)cc(OC)c1 showed a GI50 of 4890 nM.
With COc1cc(Nc2ncnc3c(NC(=O)c4ccc(CN(C)C)cc4)cccc23)cc(OC)c1 the GI50 was 4370 nM.
With COc1cc(Nc2ncnc3c(NC(=O)Nc4cccc(C(F)(F)F)c4F)cccc23)cc(OC)c1 the GI50 was 471 nM.
COc1cc(Nc2ncnc3c(NC(=O)Nc4ccc(C(F)(F)F)cc4Cl)cccc23)cc(OC)c1 gave a GI50 of 1080 nM.
With COc1cc(Nc2ncnc3c(NC(=O)Nc4cccc(Oc5ccccc5)c4)cccc23)cc(OC)c1 the GI50 was 14000 nM.
With COc1cc(Nc2ncnc3c(NC(=O)Nc4ccc(F)cc4F)cccc23)cc(OC)c1 the GI50 was 2460 nM.
Compound COc1cc(Nc2ncnc3c(NC(=O)Nc4ccc(C)c(C)c4)cccc23)cc(OC)c1 has a GI50 of 8.8 nM.
Work on COc1cc(Nc2ncnc3c(NC(=O)Nc4cc(C(F)(F)F)cc(C(F)(F)F)c4)cccc23)cc(OC)c1 yielded a GI50 of 467 nM.
COc1cc(CCc2cc(NC(=O)c3ccc(N4C[C@@H](C)N[C@@H](C)C4)cc3)n[nH]2)cc(OC)c1 [FEXAGRATINIB] gave a GI50 of 29.2 nM.
In the case of CCN(CC)CCCCNc1ncc2cc(-c3cc(OC)cc(OC)c3)c(NC(=O)NC(C)(C)C)nc2n1 [PD-173074], the GI50 is reported as 15 nM.
